Measurements: patent US9115133B2, “Substituted fused tricyclic compounds, compositions and medicinal applications thereof” (Advinus Therapeutics Limited, priority 2011, dated 2015)

How the values were obtained:
Format in all cases: biochemical
Settings in all cases: 200 μg/ml Poly Glu-Tyr (4:1), ATP 1 uM, 90 min room temperature, luminescence
[1] = molecular target: T1, Recombinant JAK1 (Amino acids 850-1154) (Homo sapiens, UniProt P23458); experiment: Kinase-Glo Luminescent Kinase Assay, recombinant JAK1
T1 construct: Recombinant JAK1 (Amino acids 850-1154; NM_002227.2); made in house; host or cells: baculovirus expression system (Bac-to-Bac)
T1 sequence (P23458 850-1154): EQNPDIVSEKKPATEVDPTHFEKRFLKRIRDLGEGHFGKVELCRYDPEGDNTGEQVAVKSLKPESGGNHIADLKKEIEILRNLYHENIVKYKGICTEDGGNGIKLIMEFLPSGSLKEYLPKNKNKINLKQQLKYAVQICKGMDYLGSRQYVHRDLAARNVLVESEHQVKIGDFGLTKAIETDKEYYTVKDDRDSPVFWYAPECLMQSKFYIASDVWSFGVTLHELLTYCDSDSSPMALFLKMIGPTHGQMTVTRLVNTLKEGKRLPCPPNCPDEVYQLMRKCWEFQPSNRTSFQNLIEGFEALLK
Method in brief: (§1)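 Baculovirus-expressed kinase domains were pre-incubated 5 min with compound (1% DMSO), then reacted 90 min at room temperature with 200 μg/ml poly Glu-Tyr (4:1) and 1 uM ATP in 50 mM HEPES pH 7.4, 5 mM MgCl2. Remaining ATP was read by Kinase-Glo luminescence. IC50 came from four-parameter logistic fits.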

[2] = molecular target: T2, Recombinant JAK3 (Amino acids 781-1124) (Homo sapiens, UniProt P52333); experiment: Kinase-Glo Luminescent Kinase Assay, recombinant JAK3
T2 construct: JAK3 (Amino acids 781-1124; NM_000215.3); made in house; host or cells: baculovirus expression system (Bac-to-Bac)
T2 sequence (P52333 781-1124): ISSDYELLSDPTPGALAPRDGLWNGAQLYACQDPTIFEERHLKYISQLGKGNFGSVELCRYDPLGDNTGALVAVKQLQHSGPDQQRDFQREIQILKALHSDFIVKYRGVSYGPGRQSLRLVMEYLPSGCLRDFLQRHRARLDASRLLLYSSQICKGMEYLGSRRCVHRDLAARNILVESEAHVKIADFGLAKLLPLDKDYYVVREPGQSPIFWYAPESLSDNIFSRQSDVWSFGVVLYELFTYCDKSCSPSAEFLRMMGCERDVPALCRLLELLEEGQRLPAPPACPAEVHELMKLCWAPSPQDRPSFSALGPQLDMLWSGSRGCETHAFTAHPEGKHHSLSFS
Method in brief: as §1

[3] = molecular target: T3, Recombinant JAK2 (Amino acids 808-1132) (Homo sapiens, UniProt O60674); experiment: Kinase-Glo Luminescent Kinase Assay, recombinant JAK2
T3 construct: JAK2 (Amino acids 808-1132; NM_004972.3); made in house; host or cells: baculovirus expression system (Bac-to-Bac)
T3 sequence (O60674 808-1132): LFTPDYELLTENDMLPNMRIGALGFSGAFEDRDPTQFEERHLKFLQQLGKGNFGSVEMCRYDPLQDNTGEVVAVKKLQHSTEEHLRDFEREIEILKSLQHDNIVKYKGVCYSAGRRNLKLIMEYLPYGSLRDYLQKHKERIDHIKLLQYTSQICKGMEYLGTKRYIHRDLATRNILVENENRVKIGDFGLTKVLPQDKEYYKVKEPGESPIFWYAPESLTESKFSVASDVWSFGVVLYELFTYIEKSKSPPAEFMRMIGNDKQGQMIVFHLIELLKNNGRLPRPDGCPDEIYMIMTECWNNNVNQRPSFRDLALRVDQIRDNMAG
Text: Recombinant JAK1 (Amino acids 850-1154; NM_002227.2), JAK2 (Amino acids 808-1132; NM_004972.3) and JAK3 (Amino acids 781-1124; NM_000215.3) used in the studies were expressed using Invitrogen's Bac-to-Bac baculovirus expression system according to manufacturer's instructions. Adenosine 5′-triphosphate was obtained from Sigma Aldrich chemicals (Cat # A7699). Poly Glu-Tyr (4:1) sodium salt was obtained from Sigma Aldrich (Cat # P0275), Kinase Glo® Luminescent Kinase assay kit was obtained from Promega (Cat # V6713) Kinase activity was assessed by Promega Kinase-Glo® Luminescent Kinase Assay kit using 200 μg/ml Poly Glu-Tyr (4:1) as substrate and ATP at 1 uM concentration. The reactions were carried out in 384 well plates in total reaction volume of 20 uL. Reaction mixtures contained 50 mM HEPES pH 7.4, 5 mM MgCl2, 1 mM DTT, 0.01% BSA, 0.01% Tween 20. Kinase was pre-incubated with compounds or 1% DMSO for 5 min before addition of substrate and ATP to check for inhibition. Kinase reactions were carried out at room temperature for 90 min. The reactions were stopped by adding 5 μl of Kinase Glo® reagent & 10 μl of reaction mixture followed by measuring luminescence. The luminescent signal is correlated with the amount of ATP present at the end of kinase reaction and is inversely correlated with the amount of kinase activity. For each data point, % inhibition is calculated based on uninhibited reaction (without compound) which is considered as 100% activity over no enzyme or substrate controls. Dose response data is then fit using a four parameter logistic equation using Graph-pad Prism 5 software to determine inhibition constant 50 (IC50).

Row | SMILES | IC50 [1] [nM] | IC50 [2] [nM] | IC50 [3] [nM]
1 | O=C(CC1CC1)N1CCCC(c2ncnc3cnc4[nH]ccc4c23)C1 (stereo not drawn) [Ex. 25, 2-Cyclopropyl-1-[3-(3H-3,4,6,8-tetraazacyclopenta[a]naphthalen-9-yl)-piperidin-1-yl]-ethanone] | 1 to 20 | > 20 | > 20
2 | O=C(C1CCOC1)N1CCCC(c2ncnc3cnc4[nH]ccc4c23)C1 (stereo not drawn) [Ex. 26, [3-(3H-3,4,6,8-Tetraaza-cyclopenta[a]naphthalen-9-yl)-piperidin-1-yl]-(tetrahydro-furan-3-yl)-mathanone] | 1 to 20 | > 20 | > 20
3 | CCC(=O)N1CCCC(c2ncnc3cnc4[nH]ccc4c23)C1 (stereo not drawn) [Ex. 27, 1-[3-(3H-3,4,6,8-Tetraaza-cyclopenta[a]naphthalen-9-yl)-piperidin-1-yl]-propan-1-one] | > 20 | > 20 | > 20
4 | CC(C)(C)C(=O)N1CCCC(c2ncnc3cnc4[nH]ccc4c23)C1 (stereo not drawn) [Ex. 28, 2,2-Dimethyl-1-[3-(3H-3,4,6,8-tetraaza-cyclopenta[a]naphthalen-9-yl)-piperidin-1-yl]-propan-1-one] | 1 to 20 | > 20 | 1 to 20
5 | O=C(C1CC1)N1CCCC(c2ncnc3cnc4[nH]ccc4c23)C1 (stereo not drawn) [Ex. 29, Cyclopropyl-[3-(3H-3,4,6,8-tetraaza-cyclopenta[a]naphthalen-9-yl)-piperidin-1-yl]-methanone] | > 20 | > 20 | > 20
6 | CC(C)CS(=O)(=O)N1CCCC(c2ncnc3cnc4[nH]ccc4c23)C1 (stereo not drawn) [Ex. 30, 9-[1-(2-Methyl-propane-1-sulfonyl)-piperidin-3-yl]-3H-3,4,6,8-tetraaza-cyclopenta[a]naphthalene] | > 20 | > 20 | > 20
7 | O=S(=O)(C1CC1)N1CCCC(c2ncnc3cnc4[nH]ccc4c23)C1 (stereo not drawn) [Ex. 31, 9-(1-Cyclopropanesulfonyl-piperidin-3-yl)-3H-3,4,6,8-tetraaza-cyclopenta[a]naphthalene] | > 20 | > 20 | > 20
8 | CC(C)NC(=O)N1CCCC(c2ncnc3cnc4[nH]ccc4c23)C1 (stereo not drawn) [Ex. 32, 3-(3H-3,4,6,8-Tetraaza-cyclopenta[a]naphthalen-9-yl)-piperidine-1-carboxylic acid isopropylamide] | > 20 | > 20 | > 20
9 | CC(C)/C(=N\C#N)N1CCCC(c2ccnc3cnc4[nH]ccc4c23)C1 (stereo not drawn) [Ex. 43, (E)-[2-methyl-1-[3-(3H-pyrrolo[3,2-f][1,7]naphthyridin-9-yl)-1-piperidyl]propylidene]cyanamide] | > 20 | 1 to 20 | 1 to 20
10 | CC(C)/C(=N\C#N)N1CCC[C@H](c2ccnc3cnc4[nH]ccc4c23)C1 [Ex. 43A, (R)(E)-[2-methyl-1-[3-(3H-pyrrolo[3,2-f][1,7]naphthyridin-9-yl)-1-piperidyl]propylidene]cyanamide] | > 20 | > 20 | > 20
11 | CC(C)/C(=N\C#N)N1CCC[C@@H](c2ccnc3cnc4[nH]ccc4c23)C1 [Ex. 43B, (S)(E)-[2-methyl-1-[3-(3H-pyrrolo[3,2-f][1,7]naphthyridin-9-yl)-1-piperidyl]propylidene]cyanamide] | 1 to 20 | 1 to 20 | 1 to 20
12 | N#C/N=C(\CC(F)(F)F)N1CCCC(c2ccnc3cnc4[nH]ccc4c23)C1 (stereo not drawn) [Ex. 44, (E)-[3,3,3-trifluoro-1-[3-(3H-pyrrolo[3,2-f][1,7]naphthyridin-9-yl)-1-piperidyl]propylidene]cyanamide] | 1 to 20 | > 20 | 1 to 20
13 | N#C/N=C(\CC(F)(F)F)N1CCC(c2ccnc3cnc4[nH]ccc4c23)C1 (stereo not drawn) [Ex. 45, (E)-[3,3,3-trifluoro-1-[3-(3H-pyrrolo[3,2-f][1,7]naphthyridin-9-yl)pyrrolidin-1-yl]propylidene]cyanamide] | 1 to 20 | > 20 | 1 to 20
14 | CN(C)C(=O)N1CCCC(c2ccnc3cnc4[nH]ccc4c23)C1 (stereo not drawn) [Ex. 47, N,N-dimethyl-3-(3H-pyrrolo[3,2-f][1,7]naphthyridin-9-yl)piperidine-1-carboxamide] | 1 to 20 | 1 to 20 | 1 to 20
15 | CCNC(=O)N1CCCC(c2ccnc3cnc4[nH]ccc4c23)C1 (stereo not drawn) [Ex. 48, N-ethyl-3-(3H-pyrrolo[3,2-f][1,7]naphthyridin-9-yl)piperidine-1-carboxamide] | > 20 | > 20 | > 20
16 | CC(C)CNC(=O)N1CCCC(c2ccnc3cnc4[nH]ccc4c23)C1 (stereo not drawn) [Ex. 49, N-isobutyl-3-(3H-pyrrolo[3,2-f][1,7]naphthyridin-9-yl)piperidine-1-carboxamide] | > 20 | > 20 | > 20
17 | CNC(=O)N1CCCC(c2ccnc3cnc4[nH]ccc4c23)C1 (stereo not drawn) [Ex. 50, N-methyl-3-(3H-pyrrolo[3,2-f][1,7]naphthyridin-9-yl)piperidine-1-carboxamide] | > 20 | > 20 | > 20
18 | c1cc(N2CCCC(OCC3CC3)C2)c2c(cnc3[nH]ccc32)n1 (stereo not drawn) [Ex. 56, 9-[3-(cyclopropylmethoxy)-1-piperidyl]-3H pyrrolo[3,2f][1,7] naphthyridine] | 1 to 20 | 1 to 20 | 1 to 20
19 | c1cc(N2CCC(OCC3CC3)CC2)c2c(cnc3[nH]ccc32)n1 [Ex. 60, 9-[4-(cyclopropylmethoxy)-1-piperidyl]-3H-pyrrolo[3,2-f][1,7]naphthyridine] | > 20 | 1 to 20 | > 20
20 | O=C(NC1CC1)[C@@H]1CCCN(c2ccnc3cnc4[nH]ccc4c23)C1 [Ex. 61B, (3R)-N-cyclopropyl-1-(3H-pyrrolo[3,2-f][1,7]naphthyridin-9-yl)piperidine-3-carboxamide] | > 20 | > 20 | > 20
21 | CN(C(=O)CC(F)(F)F)C1CCCN(c2ccnc3cnc4[nH]ccc4c23)C1 (stereo not drawn) [Ex. 65, 3,3,3-trifluoro-N-methyl-N-[1-(3H-pyrrolo[3,2-f][1,7]naphthyridin-9-yl)-3-piperidyl]propanamide] | > 20 | > 20 | > 20
22 | CC(C)NC(=O)C1CCCN(c2ccnc3cnc4[nH]ccc4c23)C1 (stereo not drawn) [Ex. 68, N-isopropyl-1-(3H-pyrrolo[3,2-f][1,7]naphthyridin-9-yl)piperidine-3-carboxamide] | > 20 | > 20 | > 20
23 | CNC(=O)C1CCCN(c2ccnc3cnc4[nH]ccc4c23)C1 (stereo not drawn) [Ex. 71, N-methyl-1-(3H-pyrrolo[3,2-f][1,7]naphthyridin-9-yl)piperidine-3-carboxamide] | > 20 | > 20 | > 20
24 | CCNC(=O)C1CCCN(c2ccnc3cnc4[nH]ccc4c23)C1 (stereo not drawn) [Ex. 72, N-ethyl-1-(3H-pyrrolo[3,2-f][1,7]naphthyridin-9-yl)piperidine-3-carboxamide] | > 20 | > 20 | > 20
25 | O=C(NC1CCCN(c2ccnc3cnc4[nH]ccc4c23)C1)C1CC1 (stereo not drawn) [Ex. 74, N-[1-(3H-pyrrolo[3,2-f][1,7]naphthyridin-9-yl)-3-piperidyl] cyclopropanecarbox-amide] | > 20 | > 20 | > 20
26 | O=S(=O)(NC1CCCN(c2ccnc3cnc4[nH]ccc4c23)C1)C(F)(F)F (stereo not drawn) [Ex. 81, 1,1,1-trifluoro-N-[1-(3H-pyrrolo[3,2-f][1,7]naphthyridin-9-yl)-3-piperidyl]methane sulfonamide] | 1 to 20 | 1 to 20 | 1 to 20
27 | O=C(NCC(F)(F)F)C1CCCN(c2ccnc3cnc4[nH]ccc4c23)C1 (stereo not drawn) [Ex. 83, 1-(3H-pyrrolo[3,2-f][1,7]naphthyridin-9-yl)-N-(2,2,2-trifluoroethyl)piperidine-3-carboxamide] | 1 to 20 | 1 to 20 | 1 to 20
28 | CC(C)NC(=O)C1CCN(c2ccnc3cnc4[nH]ccc4c23)C1 (stereo not drawn) [Ex. 84, N-isopropyl-1-(3H-pyrrolo[3,2-f][1,7]naphthyridin-9-yl)pyrrolidine-3-carboxamide] | 1 to 20 | > 20 | > 20
